Marks after values point to notes of the source that are not given here.
How the values were obtained:
[1] = tested on: HMEC-1 human vascular endothelial cells

SMILES | Maximum Non-Hemolytic Concentration (blood) | Maximum Non-Cytotoxic Concentration HMEC-1 [1] | Maximum Non-Cytotoxic Concentration L929 (L929 mouse fibroblasts) | Concentrations with no hemolytic properties (blood) | Concentrations with hemolytic properties (blood)
O=C(O)CSCCC(F)(F)C(F)(F)C(F)(F)C(F)(F)C(F)(F)C(F)(F)C(F)(F)C(F)(F)F [2a3a] | 0.05% | 1% | 0.5% | – | –
O=C(O)CCCC(=O)OCCC(F)(F)C(F)(F)C(F)(F)C(F)(F)C(F)(F)C(F)(F)F [2k3c] | 0.05% | 0.10* % | 0.10* % | – | –
O=C(O)CCCCCSCCC(F)(F)C(F)(F)C(F)(F)C(F)(F)C(F)(F)C(F)(F)C(F)(F)C(F)(F)F [2c3e] | 0.02% | 1% | 0.5% | – | –
O=C(O)CCCCCSCCC(F)(F)C(F)(F)C(F)(F)C(F)(F)C(F)(F)C(F)(F)C(F)(F)C(F)(F)F [2c3k] | 0.05% | 1% | 0.25% | – | –
O=C(O)CC(F)(F)C(F)(F)C(F)(F)C(F)(F)C(F)(F)C(F)(F)F [2p3c] | 0.25% | 0.1% | 0.1% | – | –
O=C(O)C(CCC(F)(F)C(F)(F)C(F)(F)C(F)(F)C(F)(F)C(F)(F)C(F)(F)C(F)(F)F)C(=O)O [2s3e] | 0.1% | 0.25% | 0.25% | – | –
O=C(O)CCCC(=O)OCCC(F)(F)C(F)(F)C(F)(F)C(F)(F)C(F)(F)C(F)(F)C(F)(F)C(F)(F)F [2l3l] | >2.00% | >1.00% | >1.00% | – | –
O=C(O)CSCCC(F)(F)C(F)(F)C(F)(F)C(F)(F)C(F)(F)C(F)(F)C(F)(F)C(F)(F)F [2a3e] | 0.25% | 0.2% | 0.2% | – | –
O=C(O)CCC(=O)OCCC(F)(F)C(F)(F)C(F)(F)C(F)(F)C(F)(F)C(F)(F)C(F)(F)C(F)(F)F [2j3a] | >2.00% | 0.2% | 0.2% | – | –
O=C(O)CCCCCSCCC(F)(F)C(F)(F)C(F)(F)C(F)(F)C(F)(F)C(F)(F)C(F)(F)C(F)(F)F [2c3c] | 0.25% | 0.5% | 0.25% | – | –
O=C(O)CCCC(=O)OCCC(F)(F)C(F)(F)C(F)(F)C(F)(F)C(F)(F)C(F)(F)F [2k3e] | 0.05% | 0.01* % | 0.10* % | – | –
O=C(O)CC(F)(F)C(F)(F)C(F)(F)C(F)(F)C(F)(F)C(F)(F)F [2p3e] | 0.25% | 0.25% | 0.1% | – | –
O=C(O)CCC(=O)OCCC(F)(F)C(F)(F)C(F)(F)C(F)(F)C(F)(F)C(F)(F)F [2i3c] | 0.02% | 0.10** % | 0.10** % | – | –
O=C(O)CCCC(=O)OCCC(F)(F)C(F)(F)C(F)(F)C(F)(F)C(F)(F)C(F)(F)F [2k3k] | 0.05% | 0.10** % | 0.20** % | – | –
O=C(O)CCC(=O)OCCC(F)(F)C(F)(F)C(F)(F)C(F)(F)C(F)(F)C(F)(F)C(F)(F)C(F)(F)F [2j3k] | 1% | 0.5% | 0.50* % | ≤ 1% | –
O=C(O)CCCC(=O)OCCC(F)(F)C(F)(F)C(F)(F)C(F)(F)C(F)(F)C(F)(F)C(F)(F)C(F)(F)F [2l3c] | >2.00% | 0.5% | 0.5% | – | –
O=C(O)CCC(=O)OCCC(F)(F)C(F)(F)C(F)(F)C(F)(F)C(F)(F)C(F)(F)F [2i3e] | 0.05% | 0.10** % | 0.20** % | – | –
O=C(O)CCCC(=O)OCCC(F)(F)C(F)(F)C(F)(F)C(F)(F)C(F)(F)C(F)(F)F [2k3l] | 0.05% | <0.25% | <0.25* % | – | –
O=C(O)CCCCCSCCC(F)(F)C(F)(F)C(F)(F)C(F)(F)C(F)(F)C(F)(F)C(F)(F)C(F)(F)F [2c3f] | 0.01% | 1% | <0.25% | – | above 0.05%
O=C(O)CCC(=O)OCCC(F)(F)C(F)(F)C(F)(F)C(F)(F)C(F)(F)C(F)(F)F [2i3l] | 0.05% | 0.01** % | 0.01** % | – | –
O=C(O)CCC(=O)OCCC(F)(F)C(F)(F)C(F)(F)C(F)(F)C(F)(F)C(F)(F)F [2i2i3h] | 0.05% | 0.1% | 0.1% | – | –
O=C(O)CCC(=O)OCCC(F)(F)C(F)(F)C(F)(F)C(F)(F)C(F)(F)C(F)(F)C(F)(F)C(F)(F)F [2j2j3h] | >2.00% | 1% | 0.25** % | – | –
O=C(O)CCCCCSCCC(F)(F)C(F)(F)C(F)(F)C(F)(F)C(F)(F)C(F)(F)C(F)(F)C(F)(F)F [2c3l] | 0.02% | 0.5% | 0.25* % | – | –
O=C(O)CSCCC(F)(F)C(F)(F)C(F)(F)C(F)(F)C(F)(F)C(F)(F)C(F)(F)C(F)(F)F [2a3c] | 0.2% | 0.2% | 0.2% | – | –
O=C(O)CCC(=O)OCCC(F)(F)C(F)(F)C(F)(F)C(F)(F)C(F)(F)C(F)(F)C(F)(F)C(F)(F)F [2j3l] | >2.00% | 1% | 0.10** % | – | –
O=C(O)CCC(=O)OCCC(F)(F)C(F)(F)C(F)(F)C(F)(F)C(F)(F)C(F)(F)F [2i3k] | 0.1% | 0.1% | 0.1% | – | –
O=C(O)CSCCC(F)(F)C(F)(F)C(F)(F)C(F)(F)C(F)(F)C(F)(F)C(F)(F)C(F)(F)F [2a3f] | >2.00% | 0.2% | 0.2% | – | –
O=C(O)CCCCCSCCC(F)(F)C(F)(F)C(F)(F)C(F)(F)C(F)(F)C(F)(F)C(F)(F)C(F)(F)F [2c3a] | 0.02% | 0.5% | 0.5% | – | –
